Experimental data from PubChem BioAssay (NCI).
“And” between values parts separate entries of the source, which are not always exact repeats. Equal values may be shown once.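 In this assay, cells in 96-well plates receive the compound at five concentrations for 48 hours. Endpoints are linearly interpolated between the surrounding concentrations. GI50: concentration for 50% inhibition of growth. TGI: concentration producing complete growth inhibition.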

Assays:
Assay in all cases: NCI anticancer screen, dose series, 48 h
DLD-1 colon = system: DLD-1 colon
DMS 114 small cell lung = system: DMS 114 small cell lung
DMS 273 small cell lung = system: DMS 273 small cell lung
M19-MEL melanoma = system: M19-MEL melanoma
SNB-78 CNS = system: SNB-78 CNS
XF 498 CNS = system: XF 498 CNS
RXF-631 renal = system: RXF-631 renal
MDA-N = system: MDA-N
LXFL 529 NSCLC = system: LXFL 529 NSCLC

Row | Compound | TGI (DLD-1 colon) | TGI (DMS 114 small cell lung) | TGI (DMS 273 small cell lung) | TGI (M19-MEL melanoma) | TGI (SNB-78 CNS) | TGI (XF 498 CNS) | TGI (RXF-631 renal) [µM] | TGI (MDA-N) [µM] | TGI (LXFL 529 NSCLC) | GI50 (DLD-1 colon) [µM] | GI50 (DMS 114 small cell lung) [µM] | GI50 (DMS 273 small cell lung) [µM] | GI50 (LXFL 529 NSCLC) [µM] | GI50 (M19-MEL melanoma) [µM] | GI50 (SNB-78 CNS) [µM] | GI50 (XF 498 CNS) [µM]
1 | N=C(N)SCc1cn2ccccc2n1 | > 100 µM | > 100 µM | > 100 µM | > 100 µM | > 100 µM | > 100 µM | – | – | – | – | – | – | – | – | – | –
2 | C/C(=N/N(C=O)C[n+]1ccccc1)C(CN(CC(C)C)CC(C)C)C(=O)Nc1ccc(C)cc1C (centres undefined) | > 100 µM | > 100 µM | – | – | – | – | > 100 | – | – | – | – | – | – | – | – | –
3 | N#Cc1ccc(-c2nc(C#N)c(N)o2)cc1 | – | – | – | – | – | – | – | > 10 | – | – | – | – | – | – | – | –
4 | CON(C)C(=O)C(C)NC(=O)OCc1ccccc1 (centres undefined) | – | – | – | – | – | – | – | > 100 | – | – | – | – | – | – | – | –
5 | COc1ccc(C(C2=C(C)C(=O)c3ccccc3C2=O)c2ccc(C(C)C)cc(=O)c2O)cc1 (centres undefined) | 18.4 µM | 8.54 µM | 5.4 µM | 4.92 µM | 35.1 µM | 34.1 µM | – | – | > 100 µM | – | – | – | – | – | – | –
6 | O=C(C(=O)c1ccc(Cc2ccc(C(=O)C(=O)c3ccccc3)cc2)cc1)c1ccccc1 | > 100 µM | > 100 µM | > 100 µM | > 100 µM | > 100 µM | – | > 100 | – | > 100 µM | – | – | – | – | – | – | –
7 | N#CC(C#N)SCc1ccccc1 | > 100 µM | 60.1 µM | > 100 µM | > 100 µM | > 91.7 µM | – | – | – | > 100 µM | – | – | – | – | – | – | –
8 | CC1=C(C(=O)NC2CCCCC2)CC(C(=O)NC2CCCCC2)=C(C)N1 | – | – | – | – | – | – | – | > 100 | – | – | – | – | – | – | – | –
9 | Cc1cc(O)c2c(c1)C(O)(c1ccc3c(c1O)C(=O)c1c(O)cc(C)cc1C3(O)C1OC(CO)C(O)C(O)C1O)c1cccc(O)c1C2=O (centres undefined) | 23.7 µM | 22.7 µM | 30.4 µM | 24.8 µM | 36.1 µM | 16.7 µM | 29.5 | – | 24.5 µM | – | – | – | – | – | – | –
10 | Nc1nc2c(ncn2Cc2ccccc2CCO)c(=O)[nH]1 | – | > 100 µM | > 100 µM | > 100 µM | – | > 100 µM | > 100 | – | > 100 µM | – | – | – | – | – | – | –
11 | Cc1cc(Cl)ccc1NC(=O)C(=O)Cc1nc2ccc(C(=O)c3ccccc3)cc2[nH]c1=O | > 100 µM | > 100 µM | > 100 µM | > 100 µM | – | > 100 µM | – | – | > 100 µM | – | – | – | – | – | – | –
12 | CC12CC3(C)CC(C)(C1)CC(N=[N+]=[N-])(C2)C3 | > 100 µM | > 100 µM | > 100 µM | > 100 µM | > 100 µM | > 100 µM | > 100 | – | > 100 µM | – | – | – | – | – | – | –
13 | COc1cc2nncc(Sc3cnnc4ccccc34)c2cc1OC | 49.6 µM | > 100 µM | 81.7 µM | > 100 µM | 92.4 µM | – | 53.6 | – | > 100 µM | – | – | – | – | – | – | –
14 | CSc1nc2c(c(O)c(C)c(=O)n2C2OC(COC(C)=O)C(OC(C)=O)C(OC(C)=O)C2OC(C)=O)c(=O)n1C (centres undefined) | > 100 µM | > 100 µM | > 100 µM | – | > 100 µM | > 100 µM | > 100 | – | > 100 µM | – | – | – | – | – | – | –
15 | COC(=O)c1ccc2c(c1)C(NC(C)=O)CCc1cc(OC)c(OC)c(OC)c1-2 (centres undefined) | > 100 µM | 0.0356 µM | > 100 µM | > 100 µM | > 4.64 µM | > 100 µM | > 6.91 | < 0.01 | > 100 µM | – | – | – | – | – | – | –
16 | O=c1nc(-c2ccccc2)c2c3c(cccn13)CCC2 | > 100 µM | > 100 µM | > 100 µM | > 100 µM | > 100 µM | > 100 µM | – | – | > 100 µM | – | – | – | – | – | – | –
17 | COc1cc(C2c3cc4c(cc3[C@@H](Nc3ccc(N(C)C)cc3)[C@H]3COC(=O)C23)OCO4)cc(OC)c1O (some centres undefined) | 9.22 µM and 12.4 µM | 2.95 µM and 3.2 µM | 0.877 µM and 2.47 µM | 12.3 µM and 16.5 µM | 22.2 µM and 37.6 µM | 10.9 µM and 13.3 µM | – | – | 11.1 µM and 20.6 µM | 2.19 | 0.596 | 0.202 | 6.16 | 2.53 | 8.2 | 2.27
18 | O=C(c1ccccc1)c1c(CC(O)c2cccnc2)n(C(=O)c2ccccc2)c2ccccc12 (centres undefined) | – | 74.2 µM | 56.2 µM | 38.3 µM | – | 27.1 µM | – | – | – | – | – | – | – | – | – | –
19 | CC[O-].CC[O-].O=C1C(=C([O-])c2ccccc2)C(=O)c2ccccc21.O=C1C(=C([O-])c2ccccc2)C(=O)c2ccccc21.[Ti+4] | > 100 µM | – | > 100 µM | – | > 100 µM | – | – | – | – | 93.2 | – | 54.8 | – | – | > 100 | –
20 | CC(O)CNC1=CC(=O)C(=O)c2ccccc21 (centres undefined) | – | – | – | – | – | – | – | 34.5 | – | – | – | – | – | – | – | –
21 | O=C1[C@@H](c2ccc(Cl)cc2)[C@H]2CC=C[C@H]2N1O | > 100 µM | > 100 µM | > 100 µM | > 100 µM | > 100 µM | > 100 µM | > 100 | – | > 100 µM | – | – | – | – | – | – | –
22 | COc1ccc(C2SC(N)=Nc3c2c(C)nn3C(=O)c2ccc(Cl)cc2)cc1OC (centres undefined) | – | – | – | – | – | – | – | > 10 | – | – | – | – | – | – | – | –
